# Assay results as given in patent US9185889B2, “CD4 T-cells and CD8zeta cells involved in mammalian host response to epithelial cell infections and uses thereof” (Indiana University Research and Technology Corporation, priority 2010, dated 2015).
# How the values were obtained:
# [1] = target: T1, iNOS (Mus musculus, UniProt P29477); experiment: NO production measured as nitrite by infected C57epi.1 epithelial cells with iNOS inhibitors; format: cell-based, murine
# T1 construct: C57epi.1 is a cloned oviduct epithelial cell line derived from a C57BL/6 mouse; endogenous in cells; host or cells: C57epi.1 mouse (C57BL/6) oviduct epithelial cell line, IFN-gamma pretreated and infected with C. muridarum, with or without mouse CD4 T cell clones
# Experimental: Referring now to FIG. 19A, C57 epi.1 epithelial cells, untreated (hatched bars) or pretreated with IFN-γ (10 ηg/ml×14 hours) in the absence (black bars) or presence of iNOS inhibitors MLA (gray bars) or NIL (light gray bars),—were infected with C. muridarum (3 IFU/cell). Four hours later, the inocula were removed and monolayers cocilted with and with CD4 T-cell clones uvmo-1, -2, and -3 for an additional 32 hours. Supernatants were collected at 36 hour post infection, 32 hour post T cell coculture, and analyzed for NO production measured as nitrite. […] Also, MLA and NIL were effective inhibitors of NO production, as MLA blocked>90% of IFN-γ-induced NO; NIL blocked ˜60%.
# Still referring to FIG. 19A, the iNOS inhibitor MLA blocks infected epithelial nitrite production to the background level of 2 uM even in the presence of exogenous interferon gamma and CD4 T cell clones uvmo-1,-2,-3. Inhibition of iNOS activity induced by interferon gamma, and interferon gamma plus CD4 T cell clones uvmo-1,-2,-3, in infected C57epi.1 murine epithelial cells using the iNOS inhibitors N^G-Monomethyl-L-arginine (MLA) and L-N^6-(1-Iminoethyl)lysine (NIL). iNOS activity was measured as nitrite in 24 h culture supernatants. […] 24 h supernatants from uninfected C57epi.1 murine epithelial cells have nitrite levels>0<1.5 uM.
# [2] = test system: C. muridarum; experiment: Control of C. muridarum replication in C57epi.1 epithelial cells (IFU titered on McCoy monolayers); format: cell-based, Chlamydia muridarum
# Experimental: To test whether the CD4 clones could control the Chlamydia replication in vitro, C57epi.1 monolayers in 48 well plates were untreated, or treated with IFN-γ (10 ηg/ml) for 14 h prior to infection or at the time of infection with 3 IFU of C. muridarum per cell. After addition of C. muridarum the plates were spun at 1200 rpm (300 g) for 30 minutes. Four hours after infection the inoculum was removed CD4 T cell clones were added in T cell media. 36 h post-infection, wells were scraped, harvested, and stored at −80° C. until C. muridarum titers determined on McCoy monolayers as previously described (Johnson, R. M., 2004). Recombinant murine IFN-γ at all concentrations tested (up to 1000 ρg/ml) had no effect on C. muridarum titrations done on the McCoy monolayers; maximum IFN-γ carryover in dilutions used for quantifying C. muridarum was <50 ρg/ml.
# The panel of CD4 T cell clones was tested to determine the ability of specific clones to control C. muridarum replication in C57epi.1 epithelial cells (FIG. 2). Monolayers of C57epi.1 cells in 48 well plates (˜200,000 epithelial cells per well) were untreated or treated with IFN-γ, either 14 h prior to infection or at the time of infection, then infected with C. muridarum. Four hours post-infection the inoculating media was removed and replaced with T cell media containing CD4 T cell clones; 150, 000 T cells were added per well for an effector-to-target ratio of ˜0.75:1. 32 h later the wells were harvested with additional SPG buffer and recovered C. muridarum titered on McCoy monolayers to score replication. […] IFUs recovered from experimental wells were compared with identically treated (untreated or IFN-γ treated) parallel control wells (no T cells) to calculate % control replication. This normalization controls for the difference in C. muridarum replication in the untreated vs. IFN-γ treated C57epi.1 cells.
# Referring now to FIG. 12A, the modest inhibitory effect of IFN-γ was reversed by blocking NO production with either MLA or NIL. […] According to FIG. 12B, C57.1epi cells were untreated (hatched bar) or pretreated with IFN-γ (10 ηg/ml×14 hours) in absence (black bar) or presence of MLA (gray bar) or NIL (light gray bar), and then infected with C. muridarum (3 IFU/cell). Wells were harvested at 36 hours postinfection and C. muridarum (IFU) quantified on McCoy monolayers. Comparisons were made to the infected (hatched bar).
# Referring now to FIG. 19B, C. muridarum replication in epithelial cells, by an iNOS-independent mechanism, is controlled by IFN-γ-independent CD4 T cell clones. […] Wells were harvested 36 hours post infection and C. muridarum quantified on McCoy monolayers. […]
Molecule,"block of IFN-γ-induced NO ([1]; infected C57epi.1 cells, nitrite in supernatants) [%]","effect on the modest inhibitory effect of IFN-γ on C. muridarum replication ([2]; C57epi.1 pretreated with IFN-γ, no T cells)","induction of NO production in C57epi.1 epithelial cells ([1]; IFN-γ 10 ηg/ml × 14 hours, infected, p<0.0001)","C. muridarum replication in control wells (no T cells) ([2]; C57epi.1 pretreated with IFN-γ 14 h prior to infection, pooled means from two experiments)",C. muridarum replication in control wells (no T cells) ([2]; IFN-γ added at the time of infection),effect on C. muridarum titrations done on McCoy monolayers ([2]; all concentrations tested (up to 1000 ρg/ml))
"CC(=N)NCCCC[C@H](N)C(=O)O.Cl [NIL, L-N^6-(1-iminoethyl)lysine hydrocholoride]",~60,reversed,,,,
IFN-γ: Recombinant murine IFN-γ (R&D Systems),,,roughly 6 fold,4±2×10^6 IFU/well,5±1×10^6 IFU/well,no effect
